From US9642854B2, “Flavanoid compounds and process for preparation thereof” (Council of Scientific & Industrial Research, priority 2009, dated 2017)
In brackets after ≈: the same amount, converted by molar mass. Where two headings read alike, the source gives them in different places.

Key:
H. pylori [1] = test: Anti H. pylori spectrum (MIC) by agar dilution method; assay type: cell-based, Helicobacter pylori; settings: Helicobacter pylori; for MIC50: MIC against 50% of the strains of the panel, read-out: MIC50
Procedure, shortened: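 Agar dilution per CLSI against six clinical isolates and four standard strains on BHI agar with 7% FCS, 0.5% IsoVitalex and DENT. Inoculum ~10^8 CFU/mL; 2-fold compound dilutions from 1.56-100; 72 h microaerophilic at 37 °C. MIC read visually as no growth, in duplicate; MIC50 covers 50% of strains.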

H. pylori [2] = test: MIC and MBC by microbroth dilution assay; assay type: cell-based, Helicobacter pylori; settings: for MBC / MIC: Helicobacter pylori
Description: The compounds, serially diluted ([…]) in Muller Hinton broth containing 5% FCS, were incubated in 96-well microtitre plate containing fresh cultures of HP001 (˜5.5×10^6 CFU/mL) or ATCC® 43504 (2.65×10^6 CFU/ml) in a final volume of […]. After 72-h of incubation under microaerophilic condition at 37° C., […] of cultures wherein no growth had been detected were streaked on fresh brain heart infusion agar plates for MBC determination.
In microbroth dilution assay employing one clinical and one standard strain, both the bacteriostatic and the bactericidal values were determined for all four compounds as well as for clarithromycin (Table 4). Two-fold serial dilutions were prepared in 96-well microtitre plate containing a total volume of 0.1 mL Mueller Hinton broth supplemented with 5% FCS. A 3-day old liquid culture was diluted 10 times in Mueller Hinton broth and 0.1 mL of these cultures was inoculated into each well to give a final concentration of ˜10^6 CFU/mL. The plates were incubated for 3 days in a microaerophilic atmosphere at 37° C. Following incubation, the plates were examined visually, and the lowest concentration showing complete inhibition of growth was recorded as the MIC of the respective compound (Hachem et al., 1996). Aliquots (0.1 mL) of 72-h culture in which no growth had been detected were taken from the wells of the above microtitre plates and used to streak on fresh BHI agar plates.

H. pylori [3] = test: Acid stability study (pH ~2.0, 2 h, then MIC/MBC by microbroth dilution); assay type: cell-based, Helicobacter pylori; settings: for MBC / MIC: Helicobacter pylori
Description: Details of experimental protocol are described under Experiment 7. MIC/MBC values were determined by microbroth dilution assay.
A 100 μL stock of CPP-1, NMC-1, NMC-2 and CPP-3 (1-2 mg/mL) was treated with 20-30 μL of 0.12 NHCl to bring the pH of the solution to ^˜2.0, and kept at 25° C. for 2 h (Funatogawa et al., 2004). Such acid-treated samples were then serially diluted (2 fold) with medium in 96-well microtitre plates to determine the MIC and the MBC values by microbroth dilution assay as detailed under Experiment 3.

H. pylori ATCC 43504 = test: Short time kill kinetics in shake culture at different pH; assay type: cell-based, Helicobacter pylori
[4] = molecular target: T1, pig gastric H^+,K^+-ATPase (Sus scrofa, UniProt P19156); test: Gastric H+,K+-ATPase activity assay; assay type: biochemical
T1 construct: tubulovesicular and apical membranes, isolated from freshly slaughtered pig gastric mucosa; from tissue; host or cells: pig gastric mucosa (membrane fraction by density gradient centrifugation)
T1 sequence (P19156 2-1034 limits assumed): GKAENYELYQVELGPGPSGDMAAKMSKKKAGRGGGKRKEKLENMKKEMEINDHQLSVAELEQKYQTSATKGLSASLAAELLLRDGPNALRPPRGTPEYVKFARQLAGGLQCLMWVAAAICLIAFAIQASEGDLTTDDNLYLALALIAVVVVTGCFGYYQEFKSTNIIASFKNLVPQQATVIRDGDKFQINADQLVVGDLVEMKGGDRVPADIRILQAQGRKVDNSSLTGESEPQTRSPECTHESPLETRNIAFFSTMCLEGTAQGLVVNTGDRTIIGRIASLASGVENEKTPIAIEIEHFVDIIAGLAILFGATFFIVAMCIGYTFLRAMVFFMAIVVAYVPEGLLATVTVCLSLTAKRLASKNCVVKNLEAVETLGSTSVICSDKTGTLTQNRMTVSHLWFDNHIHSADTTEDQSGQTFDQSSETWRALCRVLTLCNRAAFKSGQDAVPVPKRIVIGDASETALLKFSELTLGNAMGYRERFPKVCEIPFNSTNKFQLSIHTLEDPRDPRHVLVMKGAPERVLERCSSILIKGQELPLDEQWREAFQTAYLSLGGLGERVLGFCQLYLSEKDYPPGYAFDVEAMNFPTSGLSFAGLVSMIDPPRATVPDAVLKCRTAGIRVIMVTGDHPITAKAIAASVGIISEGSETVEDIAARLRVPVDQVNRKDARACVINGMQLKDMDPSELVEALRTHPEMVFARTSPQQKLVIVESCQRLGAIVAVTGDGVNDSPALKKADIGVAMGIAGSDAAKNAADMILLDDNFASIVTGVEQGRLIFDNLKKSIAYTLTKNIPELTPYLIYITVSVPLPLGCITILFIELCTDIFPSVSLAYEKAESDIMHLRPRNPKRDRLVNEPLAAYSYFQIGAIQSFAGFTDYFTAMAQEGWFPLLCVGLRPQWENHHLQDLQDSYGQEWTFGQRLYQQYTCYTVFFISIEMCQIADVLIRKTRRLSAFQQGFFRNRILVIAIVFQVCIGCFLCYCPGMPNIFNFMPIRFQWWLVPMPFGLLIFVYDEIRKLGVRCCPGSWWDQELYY
T1 sequence (P18434 whole entry partner): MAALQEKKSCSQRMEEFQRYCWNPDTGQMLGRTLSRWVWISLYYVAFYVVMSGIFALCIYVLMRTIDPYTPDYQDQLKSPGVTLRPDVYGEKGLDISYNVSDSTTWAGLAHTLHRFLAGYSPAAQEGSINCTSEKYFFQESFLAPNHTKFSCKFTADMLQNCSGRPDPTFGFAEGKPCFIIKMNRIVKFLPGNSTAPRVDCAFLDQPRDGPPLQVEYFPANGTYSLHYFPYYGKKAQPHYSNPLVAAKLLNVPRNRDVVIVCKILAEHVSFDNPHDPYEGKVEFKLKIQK
Description: The data are averages of 3-4 determinations each carried out in triplicate. The assay system contained 10 mM PIPES-Tris (pH 6.8), 2 mM each of ATP and MgCl2 with or without 10 mM KCl and about […] in a final volume of 1 mL. Both blank and experimental tubes with or without CPP-1 at different concentrations were preincubated with otherwise complete assay mixture at 37° C. for 10 min before initiating the reaction with the substrate ATP. K^+-stimulated activity referred to as H^+,K^+-ATPase activity, was calculated as the difference between the activity in presence of Mg^2+ plus K^+ and the basal activity (Mg^2+-ATPase) in presence of Mg2^+ alone. The specific activity of H^+,K^+-ATPase in control sets was in the range of 40-50 μmole Pi/mg protein/h.
The effect of CPP-1 on gastric H^+K^+-ATPase was investigated. Isolation of pig gastric mucosal membranes, rich in H^+,K^+-ATPase activity, was carried out by density gradient centrifugation technique (Ray, 1978). The enzyme assay system contained 10 mM PIPES-Tris (pH 6.8), 2 mM each of ATP and MgCl with or without 10 mM KCl and about […] in a final volume of 1 mL. Both blank and experimental tubes with or without CPP-1 at different concentrations were preincubated with otherwise complete assay mixture at 37° C. for 10 min before initiating the reaction with the substrate ATP. After appropriate time of incubation with ATP at 37° C., the reaction was terminated with the addition of 1 mL of ice-cold TCA (14%, w/v). The liberated inorganic phosphate (Pi) was estimated essentially by the method of Sanui (1974). K^+-stimulated activity referred to as H^+,K^+-ATPase activity, was calculated as the difference between the activity in presence of Mg^2+ plus K^+ and the basal activity (Mg^2+-ATPase) in presence of Mg^2+ alone. The specific activity of H^+,K^+-ATPase was expressed as micromoles of Pi liberated per hour per milligram protein. The data are averages of 3-4 determinations each carried out in triplicate. The specific activity of H^+,K^+-ATPase in control sets was in the range of 40-50 μmole Pi/mg protein/h.

[5] = ATCC43504, microbroth dilution, ATCC 43504

For O=c1cc(-c2ccccc2)oc2cc(OCCCCCCN3CCCCC3)cc(O)c12 [CPP-1, 5-Hydroxy-2-phenyl-7-(6-piperidin-1-yl-hexyloxy)-chromen-4-one], the MIC50 (H. pylori [1]; 72 h) was roughly 3.12 µg/mL (≈ 7.41 µM), the MIC (H. pylori [1]; 72 h, panel of 6 clinical isolates and 4 standard strains, read-out: MIC Range) was 3.12 to 25 µg/mL (≈ 7.41 to 59.3 µM) and the MIC50 (H. pylori [1]) was 3.12 µg/mL (≈ 7.41 µM). For the same molecule, the MIC (H. pylori [1]; clinical strain HP001, read-out: MIC) was 6.25 µg/mL (≈ 14.8 µM), the MIC (H. pylori [1]; clinical strain HP002, read-out: MIC) was 6.25 µg/mL (≈ 14.8 µM) and the MIC (H. pylori [1]; clinical strain HP003, read-out: MIC) was less than 3.12 µg/mL. It also gave an MIC (H. pylori [1]; clinical strain HP004, read-out: MIC) of less than 3.12 µg/mL, an MIC (H. pylori [1]; clinical strain HP005, read-out: MIC) of less than 3.12 µg/mL and an MIC (H. pylori [1]; clinical strain HP006, read-out: MIC) of less than 3.12 µg/mL. It also gave an MIC (H. pylori [1]; standard strain 43504, read-out: MIC) of 6.25 µg/mL (≈ 14.8 µM), an MIC (H. pylori [1]; standard strain 43629, read-out: MIC) of 25 µg/mL (≈ 59.3 µM) and an MIC (H. pylori [1]; standard strain 49503, read-out: MIC) of 6.25 µg/mL (≈ 14.8 µM). For the same molecule, the MIC (H. pylori [1]; standard strain 700392, read-out: MIC) was 3.12 µg/mL (≈ 7.41 µM), the MBC (H. pylori [2]; [5]) was roughly 6.25 µg/mL (≈ 14.8 µM) and the MIC (H. pylori [2]; [5]) was roughly 6.25 µg/mL (≈ 14.8 µM). It also gave an MBC (H. pylori [2]; microbroth dilution, HP001) of 12.5 µg/mL (≈ 29.7 µM), an MIC (H. pylori [2]; microbroth dilution, HP001) of 6.25 µg/mL (≈ 14.8 µM) and an MBC (H. pylori [2]; range over strains) of 6.25 to 12.5 µg/mL (≈ 14.8 to 29.7 µM). For the same molecule, the MIC/MBC dose range (H. pylori [2]; dose range at which irreversible morphological deformation is induced) was 6.25 to 12.5 µg/mL, the MBC (H. pylori [3]; 2 h, pH ~2.0, 2 h, 25° C., 43504, read-out: MBC, Acid treated) was 25000 µg/mL (≈ 59300 µM) and the MIC (H. pylori [3]; 2 h, pH ~2.0, 2 h, 25° C., 43504, read-out: MIC, Acid treated) was 12500 µg/mL (≈ 29700 µM). The MBC (H. pylori [3]; 2 h, pH ~2.0, 2 h, 25° C., HP001, read-out: MBC, Acid treated) was less than 12500 µg/mL, the MIC (H. pylori [3]; 2 h, pH ~2.0, 2 h, 25° C., HP001, read-out: MIC, Acid treated) was 12500 µg/mL (≈ 29700 µM) and the MBC (H. pylori [3]; not acid treated, 43504, read-out: MBC, Control) was less than 6250 µg/mL. For the same molecule, the MIC (H. pylori [3]; not acid treated, 43504, read-out: MIC, Control) was 6250 µg/mL (≈ 14800 µM), the MBC (H. pylori [3]; not acid treated, HP001, read-out: MBC, Control) was 12500 µg/mL (≈ 29700 µM) and the MIC (H. pylori [3]; not acid treated, HP001, read-out: MIC, Control) was 6250 µg/mL (≈ 14800 µM). The “increase in MIC and MBC values upon exposure to acid” value (H. pylori [3]; pH 2.0 for 2 hours) was “about 2 fold”, the decrease of growth (H. pylori ATCC 43504; 50 mg/mL (so in the source), pH 4.0, 5.0 and 6.0, short exposure) was 3 log and the survival of bacteria (H. pylori ATCC 43504; 50 mg/mL (so in the source), pH 7.2) was “the bacteria survived”. The “rate of killing as function of pH” value (H. pylori ATCC 43504; 100 and 150 mg/mL (so in the source)) was “the rate of killing was found to increase as the pH of the media raised”, the IC50 [4] was 23.7 µM and the “Percent inhibition of H^+, K^+-ATPase activity” value ([4]; 1 mg/assay (so in the source)) was 20%. The “Percent inhibition of H^+, K^+-ATPase activity” value ([4]; 5 mg/assay (so in the source)) was 30% and the “inhibition of H^+,K^+-ATPase” value ([4]; dose range of 1-10 μg/assay) was 10-50%.
